Like-named read-outs stand apart in the source and are kept apart here.
Target: T1, human CXCR3 (N-delta 4) (Homo sapiens, UniProt P49682)
T1 construct: CD8 leader (N); Flag tag; expressed in transfected cells; membrane preparation
T1 sequence (P49682 5-368 limits assumed): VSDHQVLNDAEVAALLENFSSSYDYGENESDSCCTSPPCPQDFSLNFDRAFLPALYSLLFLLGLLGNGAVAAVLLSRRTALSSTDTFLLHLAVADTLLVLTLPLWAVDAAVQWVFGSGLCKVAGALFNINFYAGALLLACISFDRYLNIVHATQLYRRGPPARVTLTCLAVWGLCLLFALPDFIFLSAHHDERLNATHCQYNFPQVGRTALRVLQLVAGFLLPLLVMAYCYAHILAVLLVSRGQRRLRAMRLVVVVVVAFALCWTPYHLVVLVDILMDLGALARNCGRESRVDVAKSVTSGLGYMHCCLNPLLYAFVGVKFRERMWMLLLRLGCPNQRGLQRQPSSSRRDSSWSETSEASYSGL
Assay: Human CXCR3 (N-delta 4) Scintillation Proximity Assay (SPA), [125I] IP-10 binding
Source text: The inventive compounds can readily be evaluated to determine activity at The CXCR3 receptors by known methods, such as, for example, Development of Human CXCR3 (N-delta 4) Binding Assay.
Cloning and Expression of Human CXCR3 (N-delta 4):
The DNA encoding human CXCR3 was cloned by PCR using human genomic DNA (Promega, Madison, Wis.) as a template. The PCR primers were designed based on the published sequence of human orphan receptor GPR9 (1) with incorporated restriction sites, a Kozak consensus sequence, CD8 leader and Flag tag. The PCR product was subcloned into the mammalian expression vector pME18Sneo, a derivative of the SR-alpha expression vector (designated as pME18Sneo-hCXCR3 (N-delta 4).
IL-3-dependent mouse pro-B cells Ba/F3 were transfected by electroporation in 0.4 ml Dulbecco's PBS containing 4×10^6 cells with 20 μg of pME18Sneo-hCXCR3 (N-delta 4) plasmid DNA. Cells were pulsed at 400 Volts, 100 OHMs, 960 μFd. The transfected cells were under selection with 1 mg/ml G418 (Life Technologies, Gaithersburg, Md.). G418-resistant Ba/F3 clones were screened for CXCR3 expression by specific binding of [^125I] IP-10 (NEN Life Science Products, Boston, Mass.).
Preparation of Ba/F3-hCXCR3 (N-delta 4) Membranes
Ba/F3 cells expressing human CXCR3 (N-delta 4) were pelleted and resuspended in the lysis buffer containing 10 mM HEPES, pH 7.5 and Complete protease inhibitors (1 tablet per 100 ml) (Boehringer Mannheim, Indianapolis, Ind.) at a cell density of 20×10^6 cells per ml. After 5 minutes incubation on ice, cells were transferred to 4639 cell disruption bomb (Parr Instrument, Moline, Ill.) and applied with 1,500 psi of nitrogen for 30 minutes on ice. Large cellular debris was removed by centrifugation at 1,000×g. Cell membrane in the supernatant was sedimented at 100,000×g. The membrane was resuspended in the lysis buffer supplemented with 10% sucrose and stored at −80° C. Total protein concentration of the membrane was determined by BCA method from Pierce (Rockford, Ill.).
Human CXCR3 (N-delta 4) Scintillation Proximity Assay (SPA)
For each assay point, 2 μg of membrane was preincubated for 1 hr with 300 μg wheat germ agglutinin (WGA) coated SPA beads (Amersham, Arlington Heights, Ill.) in the binding buffer (50 mM HEPES, 1 mM CaCl2, 5 mM MgCl2, 125 mM NaCl, 0.002% NaN3, 1.0% BSA) at room temperature. The beads were spun down, washed once, resuspended in the binding buffer and transferred to a 96-well Isoplate (Wallac, Gaithersburg, Md.). 25 pM of [^125I] IP-10 with tested compounds in a series of titration were added to start the reaction. After 3 hr reaction at room temperature, the amount of [^125I] IP-10 bound to the SPA beads was determined with a Wallac 1450 Microbeta counter.

[1] = human CXCR3, Ba/F3-hCXCR3 (N-delta 4) membranes, 25 pM [125I] IP-10, read-out: IC50 rating (human)
[2] = numerical IC50 values of representative compounds, read-out: IC50

O=C(NCc1ccc(F)c(F)c1)c1cnc(N2CCN(C3CCN(Cc4ccc(Cl)cc4)CC3)CC2)nc1C(F)(F)F [Compound 2]
IC50 [1]: > 100 nM

O=C(NCc1ccc(F)c(F)c1)c1cnc(N2CCN(C3CCN(C(=O)c4ccc(Cl)cc4)CC3)CC2)nc1C(F)(F)F [Compound 3]
IC50 [1]: > 100 nM

C[C@H]1CN(c2nccc(C(F)(F)F)n2)CCN1C1CCN(Cc2ccc(Cl)cc2)CC1 [Compound 5]
IC50 [1]: > 100 nM

CC[C@H]1CN(c2nc(Cl)c3nc[nH]c3n2)CCN1C1CCN(Cc2ccc(Cl)cc2F)CC1 [Compound 7]
IC50 [1]: > 100 nM

CCNC(=O)c1cc(C)nc(N2CCN(C3CCN(Cc4ccc(Cl)cc4)CC3)[C@@H](CC)C2)n1 [Compound 8]
IC50 [1]: > 100 nM

CC[C@H]1CN(c2nc3ncccc3c(=O)n2C)CCN1C1CCN(C(=O)c2ccc(Cl)cc2)CC1 [Compound 9]
IC50 [1]: 25 to 100 nM

CC[C@H]1CN(c2nc3ccccc3n2C)CCN1C1CCN(Cc2ccc(Cl)cc2F)CC1 [Compound 10]
IC50 [1]: > 100 nM

CC[C@H]1CN(c2nc3ncccc3c(=O)n2C2CC2)CCN1C1CCN(C(=O)c2ccc(Cl)cc2)CC1 [Compound 11]
IC50 [1]: 25 to 100 nM

CC[C@H]1CN(c2nc3ncccc3c(=O)n2C2CC2)CCN1C1CCN(Cc2ccc(Cl)cc2)CC1 [Compound 12]
IC50 [1]: < 25 nM | IC50 [2]: 1.9 nM

CC[C@H]1CN(c2nc3ncccc3c(=O)n2C2CC2)CCN1C1CCN(Cc2ccc(OC(F)(F)F)cc2)CC1 [Compound 13]
IC50 [1]: < 25 nM | IC50 [2]: 2.8 nM

CC[C@H]1CN(c2nc3ncccc3c(=O)n2C2CC2)CCN1C1CCN(Cc2ccc(C(F)(F)F)cc2)CC1 [Compound 14]
IC50 [1]: < 25 nM | IC50 [2]: 5.6 nM

CC[C@H]1CN(c2nc3ncccc3c(=O)n2C2CC2)CCN1C1CCN(Cc2ccc(Cl)c(F)c2)CC1 [Compound 15]
IC50 [1]: < 25 nM | IC50 [2]: 1.8 nM

CC[C@H]1CN(c2nc3ncccc3c(=O)n2C2CC2)CCN1C1CCN(Cc2ccc(F)c(F)c2)CC1 [Compound 16]
IC50 [1]: < 25 nM

CC[C@H]1CN(c2nc3ncccc3c(=O)n2C2CC2)CCN1C1CCN(Cc2ccc(Cl)cc2F)CC1 [Compound 17]
IC50 [1]: < 25 nM | IC50 [2]: 2.5 nM

CC[C@H]1CN(c2nc3ncccc3c(=O)n2C2CC2)CCN1C1CCN(Cc2ccc(C#N)cc2)CC1 [Compound 18]
IC50 [1]: < 25 nM

CC[C@H]1CN(c2nc3ncccc3c(=O)n2C)CCN1C1CCN(C(=O)c2ccc(Cl)nc2N)CC1 [Compound 19]
IC50 [1]: > 100 nM

CC[C@H]1CN(c2nc3ncccc3c(=O)n2C2CC2)CCN1C1CCN(C(=O)c2ccc(Cl)nc2N)CC1 [Compound 20]
IC50 [1]: 25 to 100 nM

CC[C@H]1CN(c2nc3ncccc3c(=O)n2C)CCN1C1CCN(Cc2ccc(Cl)cc2)CC1 [Compound 21]
IC50 [1]: < 25 nM

CC[C@H]1CN(c2nc3ncccc3c(=O)n2C)CCN1C1CCN(Cc2ccc(OC(F)(F)F)cc2)CC1 [Compound 22]
IC50 [1]: < 25 nM

CC[C@H]1CN(c2nc3ncccc3c(=O)n2C)[C@H](C)CN1C1CCN(C(=O)c2ccc(Cl)cc2)CC1 [Compound 23]
IC50 [1]: > 100 nM

— patent publication US20120157466A1, “HETEROCYCLIC COMPOUNDS WITH CXCR3 ANTAGONIST ACTIVITY” (priority 2007, published 2012)
